Experimental data: PubChem BioAssay AID588407 (The Scripps Research Institute Molecular Screening Center, 2011)
Calls of active or inactive are those of the source. How the calls were made is not given here.

These compounds were tested against Mu-type opioid receptor (Homo sapiens) + Delta-type opioid receptor (Homo sapiens) (UniProt P35372+P41143) (assay: OPRM1-OPRD1 heterodimer agonist potency – cell-based, luminescence, dose response (AID 588407;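 further: potency of agonists raising the heterodimer signal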)). Conditions: cells, MOR-DOR heterodimerization.
Sequence of Mu-type opioid receptor (Homo sapiens) + Delta-type opioid receptor (Homo sapiens) (P35372 whole entry, looked up): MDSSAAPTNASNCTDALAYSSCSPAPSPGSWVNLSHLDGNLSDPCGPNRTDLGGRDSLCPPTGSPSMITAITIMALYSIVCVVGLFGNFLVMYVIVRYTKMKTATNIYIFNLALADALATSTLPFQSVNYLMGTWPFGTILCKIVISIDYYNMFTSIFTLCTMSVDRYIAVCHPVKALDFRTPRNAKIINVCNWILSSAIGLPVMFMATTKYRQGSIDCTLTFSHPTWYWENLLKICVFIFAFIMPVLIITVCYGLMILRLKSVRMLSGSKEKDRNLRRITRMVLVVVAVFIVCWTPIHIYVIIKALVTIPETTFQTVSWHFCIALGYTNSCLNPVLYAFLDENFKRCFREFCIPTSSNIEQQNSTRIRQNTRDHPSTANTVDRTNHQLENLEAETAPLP
Sequence of Mu-type opioid receptor (Homo sapiens) + Delta-type opioid receptor (Homo sapiens) (P41143 whole entry, looked up): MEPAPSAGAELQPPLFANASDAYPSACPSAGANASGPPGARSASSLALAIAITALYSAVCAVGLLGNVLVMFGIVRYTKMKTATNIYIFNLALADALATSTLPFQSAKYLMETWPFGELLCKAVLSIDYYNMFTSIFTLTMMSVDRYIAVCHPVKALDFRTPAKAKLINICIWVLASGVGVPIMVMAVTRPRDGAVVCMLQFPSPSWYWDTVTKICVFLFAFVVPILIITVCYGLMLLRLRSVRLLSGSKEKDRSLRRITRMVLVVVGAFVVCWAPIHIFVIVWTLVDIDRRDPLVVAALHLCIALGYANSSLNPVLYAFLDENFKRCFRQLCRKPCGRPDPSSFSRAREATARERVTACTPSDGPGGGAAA

| Compound | EC50 |
| --- | --- |
| O=C(CSc1ccc(Cl)cc1)Nc1ccc(-c2nc3ccccc3[nH]2)cc1 | > 92.5 µM (inactive) |
| COc1ccc(C(CNC(=O)c2ccc(S(=O)(=O)N(C)C)cc2)N(C)C)cc1 (stereo not drawn) | 4.57 µM |
| CCN1CCN(c2ccc([N+](=O)[O-])c(Sc3nc4ccccc4[nH]3)c2)CC1 | 4.66 µM |
| CN(C)C(CNC(=O)c1ccc2ccccc2c1)c1ccco1 (stereo not drawn) | inactive |
| Cc1nc2nc(C)n(CCN3CCOCC3)c(=O)c2c(-c2cccc([N+](=O)[O-])c2)c1C(=O)CCCCCCCCCCN1CCC(c2ccccc2)(c2ccccc2)CC1 | inactive |
| COc1ccc(NS(=O)(=O)c2ccc(O)c(NC(=O)c3cc4c(C)nn(-c5ccc(F)cc5)c4s3)c2)cc1 | > 92.5 µM (inactive) |
| CC1(NC(=O)CC(c2ccccc2)(c2ccccc2)c2ccccc2)CCN(CCCc2ccccc2)C1=O (stereo not drawn) | 0.895 µM |
| CCOC(=O)C1(CCOC)CCN(Cc2ccccc2-c2ccco2)CC1 | 3.18 µM |
| COc1ccc(C2C(C#N)=C(N)N(c3sc4c(c3C#N)CCCC4)C3=C2C(=O)CC(C)(C)C3)cc1 (stereo not drawn) | 4.6 µM |
| COc1ccc(C2Nc3ccccc3C(=O)N2c2ccc(F)cc2)cc1CSc1ccccn1 (stereo not drawn) | inactive |
| CCOC(=O)C1(Cc2ccccc2)CCN(Cc2cccn2-c2nccs2)CC1 | inactive |
| CN(C)C(CNC(=S)Nc1cccc(Cl)c1)c1cccnc1 (stereo not drawn) | 0.408 µM |
| O=C1C=C(c2c(O)ccc3ccccc23)c2ccccc2C1=O | 9.82 µM |
| COc1ccc2c(Cl)c(-c3nnc(SCC(=O)c4ccccc4)n3C)sc2c1 | 0.942 µM |
| COCC1CCN(Cc2cn(-c3ccccc3F)nc2-c2cc(C)sc2C)CC1 | inactive |
| CCCCCCCCCCOC(=O)Cn1c(COc2ccccc2C)[n+](C)c2ccccc21 | inactive |
| COC(=O)C(Cc1cccc(C)n1)(c1ccccc1)c1ccccc1 | 3.93 µM |
| Cc1cccc(NC(=S)NCC(c2cccnc2)N(C)C)c1 (stereo not drawn) | 1.02 µM |
| CCC(=O)C(CCN1CCOCC1)(c1ccccc1)c1ccccc1 | 0.982 µM |
| CCc1ccc2nc(N(CCCN(C)C)C(=O)c3ccc(S(=O)(=O)N(C)C4CCCCC4)cc3)sc2c1 | inactive |
| Cc1ccc2nc(N(CCCN(C)C)C(=O)c3ccc(S(=O)(=O)N4CCc5ccccc5C4)cc3)sc2c1 | 8.9 µM |
| Cc1cc(Cl)ccc1OCC(=O)N[C@@H](Cc1ccccc1)c1nc2ccccc2[nH]1 | inactive |
| CN(C)CCCN(C(=O)c1ccc(Br)s1)c1nc2cc3c(cc2s1)OCCO3 | inactive |
| COC(=O)C1=C(C)N(CCCC(=O)O)C(=O)NC1c1ccccc1OS(=O)(=O)c1ccccc1[N+](=O)[O-] (stereo not drawn) | 8.75 µM |
| CCOC(=O)C1(CC2CCCCO2)CCN(Cc2ccc(OC)cc2F)CC1 (stereo not drawn) | inactive |
| Cc1cc(/C=C2\SC(=S)N(C)C2=O)c(C)n1-c1ccc(O)cc1 | inactive |
| COc1ccc(C(CNC(=O)C(C)c2ccc3cc(OC)ccc3c2)N(C)C)cc1 (stereo not drawn) | inactive |
| c1ccc(C2(N3CCCCC3)CCCCC2)cc1 | 0.961 µM |
